Measurements reported in patent publication US11407723B2, “Selective histone deacetylase inhibitors for the treatment of human disease” (Shuttle Pharmaceuticals, Inc., priority 2018, dated 2022).

Key:
Format in all cases: biochemical
HDAC3 protein = HDAC3 protein (Homo sapiens, UniProt O15379); experiment: in vitro HDAC enzyme inhibition assay, HDAC3 (selectivity of HDAC6 over HDAC3); settings: HDAC6 vs HDAC3
Method: (§1) The compounds were tested against Pan HDAC, HDAC1, HDAC3, and HDAC6 proteins in vitro.

HDAC6 protein = target: T1, HDAC6 protein (Homo sapiens, UniProt Q9UBN7); experiment: in vitro HDAC enzyme inhibition assay, HDAC6; settings: for inhibitory activity against HDAC6 protein: FIGS. 1 and 2A-2C
T1 sequence (Q9UBN7 1-1215): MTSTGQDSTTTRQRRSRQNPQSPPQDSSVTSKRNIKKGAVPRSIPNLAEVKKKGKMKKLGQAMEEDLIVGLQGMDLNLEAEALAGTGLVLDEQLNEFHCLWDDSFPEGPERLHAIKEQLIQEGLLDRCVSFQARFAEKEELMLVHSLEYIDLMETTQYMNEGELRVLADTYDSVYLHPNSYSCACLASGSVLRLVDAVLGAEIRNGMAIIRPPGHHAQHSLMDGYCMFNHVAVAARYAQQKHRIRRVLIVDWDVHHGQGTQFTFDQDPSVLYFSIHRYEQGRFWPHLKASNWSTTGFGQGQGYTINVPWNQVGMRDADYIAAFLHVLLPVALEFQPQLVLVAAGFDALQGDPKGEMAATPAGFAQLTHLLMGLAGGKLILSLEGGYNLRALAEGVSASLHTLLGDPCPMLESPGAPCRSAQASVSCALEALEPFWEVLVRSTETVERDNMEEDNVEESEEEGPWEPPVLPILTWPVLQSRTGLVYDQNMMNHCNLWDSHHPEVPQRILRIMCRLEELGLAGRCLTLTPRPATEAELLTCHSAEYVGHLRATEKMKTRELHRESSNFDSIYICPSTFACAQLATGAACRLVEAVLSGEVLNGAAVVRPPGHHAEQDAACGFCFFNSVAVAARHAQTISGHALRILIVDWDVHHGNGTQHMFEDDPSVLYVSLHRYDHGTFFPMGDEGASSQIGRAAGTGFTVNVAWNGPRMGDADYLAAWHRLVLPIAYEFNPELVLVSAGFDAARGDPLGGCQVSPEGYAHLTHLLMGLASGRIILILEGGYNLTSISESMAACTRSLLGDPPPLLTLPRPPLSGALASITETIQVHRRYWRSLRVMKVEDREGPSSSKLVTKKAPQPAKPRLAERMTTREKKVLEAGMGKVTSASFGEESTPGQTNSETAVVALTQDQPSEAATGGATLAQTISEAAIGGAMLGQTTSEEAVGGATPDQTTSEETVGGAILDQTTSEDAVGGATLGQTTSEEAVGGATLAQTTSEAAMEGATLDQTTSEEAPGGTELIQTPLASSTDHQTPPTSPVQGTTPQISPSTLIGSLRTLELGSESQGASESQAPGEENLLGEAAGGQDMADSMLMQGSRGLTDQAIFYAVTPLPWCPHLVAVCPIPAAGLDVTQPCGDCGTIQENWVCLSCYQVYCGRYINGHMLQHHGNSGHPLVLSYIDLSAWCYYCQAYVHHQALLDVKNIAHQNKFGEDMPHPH
Method: as §1

HDAC1 protein = HDAC1 protein (Homo sapiens, UniProt Q13547); experiment: in vitro HDAC enzyme inhibition assay, HDAC1 (selectivity of HDAC6 over HDAC1); settings: HDAC6 vs HDAC1
Method: as §1

Sequence of HDAC3 protein (O15379 whole entry): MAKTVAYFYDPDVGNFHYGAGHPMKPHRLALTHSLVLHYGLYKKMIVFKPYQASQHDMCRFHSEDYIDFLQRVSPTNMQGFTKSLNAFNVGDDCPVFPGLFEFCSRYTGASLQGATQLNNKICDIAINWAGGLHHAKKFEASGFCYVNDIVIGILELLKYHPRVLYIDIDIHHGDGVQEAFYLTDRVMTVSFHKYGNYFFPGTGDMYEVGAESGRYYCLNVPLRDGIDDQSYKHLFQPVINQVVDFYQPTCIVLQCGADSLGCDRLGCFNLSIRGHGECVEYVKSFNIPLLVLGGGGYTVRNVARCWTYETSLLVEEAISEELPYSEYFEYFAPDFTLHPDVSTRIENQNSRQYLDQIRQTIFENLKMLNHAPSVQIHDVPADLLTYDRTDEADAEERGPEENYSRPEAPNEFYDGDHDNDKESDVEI
Sequence of HDAC3 protein (Q9Y618 395-489 partner limits assumed): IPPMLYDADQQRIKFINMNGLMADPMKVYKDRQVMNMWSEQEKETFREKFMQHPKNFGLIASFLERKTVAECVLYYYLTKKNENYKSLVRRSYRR
Sequence of HDAC1 protein (Q13547 whole entry): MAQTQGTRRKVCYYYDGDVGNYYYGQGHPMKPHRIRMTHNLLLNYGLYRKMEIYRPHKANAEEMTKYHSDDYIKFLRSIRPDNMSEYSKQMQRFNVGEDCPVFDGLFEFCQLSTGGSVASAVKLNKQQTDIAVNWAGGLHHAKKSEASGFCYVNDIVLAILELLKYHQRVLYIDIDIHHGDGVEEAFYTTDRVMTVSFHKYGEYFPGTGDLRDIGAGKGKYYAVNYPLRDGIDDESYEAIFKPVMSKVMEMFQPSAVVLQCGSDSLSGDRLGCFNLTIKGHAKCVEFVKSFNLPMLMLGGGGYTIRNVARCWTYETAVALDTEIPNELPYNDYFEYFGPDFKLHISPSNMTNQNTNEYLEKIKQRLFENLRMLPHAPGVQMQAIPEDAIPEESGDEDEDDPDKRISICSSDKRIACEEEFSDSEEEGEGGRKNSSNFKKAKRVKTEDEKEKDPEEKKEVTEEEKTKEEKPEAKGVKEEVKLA

times more selective for HDAC6 as compared to HDAC3 (HDAC3 protein) | inhibitory activity against HDAC6 protein (HDAC6 protein) | selectivity for HDAC6 as compared to Pan-HDACs, HDAC1 and HDAC3 (in words) (HDAC6 protein) | times more selective for HDAC6 as compared to HDAC1 (HDAC1 protein) | SMILES
about 22 times | inhibitors of HDAC6 | selective inhibitors of HDAC6 | about 65 times | Cc1cc(CNCCCCCC(=O)NO)ccc1OCc1cccc(-c2ccccc2)c1C [SP-2-225, N-hydroxy-6-((3-methyl-4-((2-methyl-[1,1′-biphenyl]-3-yl)methoxy)benzyl)amino)hexanamide]
about 12 times | inhibitors of HDAC6 | selective inhibitors of HDAC6 | about 4 times | Cc1nnc(NS(=O)(=O)c2ccc(NC(=O)CCCCCCC(=O)NO)cc2)s1 [SP-2-213, N^1-hydroxy-N^8-(4-(N-(5-methyl-1,3,4-thiadiazol-2-yl)sulfamoyl)phenyl) octanediamide]
